pEC50: −log10 of the molar value.
How the values were obtained:
mu opioid receptor (MOR) [1] = molecular target: T1, mu opioid receptor (MOR) (Homo sapiens, UniProt P35372); assay: PathHunter β-arrestin recruitment assay, PAM mode with EC20 endomorphin-1; type: cell-based
Procedure, shortened: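 Enzyme fragment complementation read-out: β-gal ED fragment fused to receptor, EA fused to β-arrestin, recruitment restoring β-gal activity detected by chemiluminescence. EC50 and percent maximal response derived for each compound.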

mu opioid receptor (MOR) [2] = molecular target: T1, mu opioid receptor (MOR); assay: Hit Hunter cAMP signaling assay (adenylyl cyclase inhibition), PAM mode with EC20 endomorphin-1; type: cell-based
[3] = maximal response, β-arrestin recruitment
[4] = β-arrestin recruitment, read-out: β-arr. EC50
[5] = adenylyl cyclase inhibition, read-out: cAMP EC50
[6] = maximal response, adenylyl cyclase inhibition
[7] = maximal response for β-arrestin recruitment
[8] = maximal response for adenylyl cyclase inhibition
[9] = cAMP EC50, adenylyl cyclase inhibition

T1 sequence (P35372 whole entry, the tested form may be a part): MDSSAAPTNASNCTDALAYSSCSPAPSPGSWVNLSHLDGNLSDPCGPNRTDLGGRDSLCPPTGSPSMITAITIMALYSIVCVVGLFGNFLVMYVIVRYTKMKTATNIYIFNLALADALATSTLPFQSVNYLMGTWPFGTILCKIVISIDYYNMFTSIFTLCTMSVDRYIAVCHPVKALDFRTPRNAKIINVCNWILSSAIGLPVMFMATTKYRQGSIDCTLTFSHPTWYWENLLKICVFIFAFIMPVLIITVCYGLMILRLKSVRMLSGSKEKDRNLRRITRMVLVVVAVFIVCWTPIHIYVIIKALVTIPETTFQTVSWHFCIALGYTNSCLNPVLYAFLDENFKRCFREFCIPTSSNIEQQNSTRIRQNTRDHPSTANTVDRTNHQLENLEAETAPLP

Row | SMILES | pEC50 (mu opioid receptor (MOR) [1]; [4]) | pEC50 (mu opioid receptor (MOR) [2]; [5]) | β-arr Max. Resp. (mu opioid receptor (MOR) [1]; [7]) | cAMP Max. Resp. (mu opioid receptor (MOR) [2]; [8]) | pEC50 (mu opioid receptor (MOR) [2]; [9]) | also measured
1 | CC1CC(c2cc(F)cc(C(F)(F)F)c2)N(c2nc(Cl)ncc2F)C1 (stereo not drawn) [compound 450] | < 5.68 | < 5.68 |  |  |  | β-arr Max. Resp. (mu opioid receptor (MOR) [1]; [3]): F (F represents a maximal response of > 60%); cAMP Max. Resp. (mu opioid receptor (MOR) [2]; [6]): E (E represents a maximal response of 40-60%)
2 | CC1CCN(S(=O)(=O)c2ccc(Cl)cc2)C1c1ccc(F)c(C(F)(F)F)c1 (mixture of isomers) [compound 100] | > 6.15 | < 5.68 | F (F represents a maximal response of > 60%) | D (D represents a maximal response of < 40%) |  | β-arr. Max Resp. (mu opioid receptor (MOR) [1]; maximal response for β-arrestin recruitment, Table 3): 76; pEC50 (mu opioid receptor (MOR) [1]; β-arrestin recruitment, Table 3, read-out: β-arr. EC50): 6.28; pEC50 (mu opioid receptor (MOR) [2]; adenylyl cyclase inhibition, Table 3, read-out: cAMP EC50): < 4.60; cAMP Max Resp. (mu opioid receptor (MOR) [2]; maximal response for adenylyl cyclase inhibition, Table 3): 25
3 | FC(F)(F)c1cccc(C2CCCCN2Cc2cccc(Br)c2)n1 (stereo not drawn) [compound 173] | > 6.15 |  | F (F represents a maximal response of > 60%) | F (F represents a maximal response of > 60%) | > 6.15 | 
4 | Fc1ccc(C2CCCCN2c2nc(Cl)ncc2F)cc1 (stereo not drawn) [compound 127] | > 6.15 |  | F (F represents a maximal response of > 60%) | E (E represents a maximal response of 40-60%) | 5.68 to 6.15 | 
5 | Fc1ccc(C2CCCCN2Cc2cc(Cl)ccn2)cc1Cl (stereo not drawn) [compound 145] | < 5.68 |  | F (F represents a maximal response of > 60%) | E (E represents a maximal response of 40-60%) | 5.68 to 6.15 | 
6 | COc1ccc(C2CCCCN2c2nc(Cl)ncc2F)cc1Br (stereo not drawn) [compound 132] | < 5.68 |  | F (F represents a maximal response of > 60%) | D (D represents a maximal response of < 40%) | 5.68 to 6.15 | 
7 | Fc1cccc(C2CCCCN2c2nc(Cl)ccc2F)n1 (stereo not drawn) [compound 264] | < 5.68 |  | E (E represents a maximal response of 40-60%) | F (F represents a maximal response of > 60%) | 5.68 to 6.15 | 
8 | COc1ccc(C2CCCCN2c2ccnc(Cl)n2)cc1Br (stereo not drawn) [compound 226] | < 5.68 |  | F (F represents a maximal response of > 60%) | F (F represents a maximal response of > 60%) | < 5.68 | 
9 | Fc1ccc(C2CCCCN2Cc2cc(Cl)ccc2Cl)cc1Cl (stereo not drawn) [compound 158] | 5.68 to 6.15 |  | F (F represents a maximal response of > 60%) | D (D represents a maximal response of < 40%) | > 6.15 | 
10 | Cc1nnc(C2CCCCN2c2nc(Cl)ncc2F)o1 (stereo not drawn) [compound 363] | > 6.15 |  | D (D represents a maximal response of < 40%) | D (D represents a maximal response of < 40%) | > 6.15 | 
11 | COc1ccc(C2COCCN2Cc2cc(Cl)ccc2F)cc1Br (racemic) [Compound 192] | < 5.68 | < 5.68 | F (F represents a maximal response of > 60%) | D (D represents a maximal response of < 40%) |  | 
12 | Cc1ccc(N2CCCCC2c2ccc(F)c(Cl)c2)cc1 (stereo not drawn) [compound 458] | < 5.68 |  |  |  | < 5.68 | β-arr Max. Resp. (mu opioid receptor (MOR) [1]; [3]): E (E represents a maximal response of 40-60%); cAMP Max. Resp. (mu opioid receptor (MOR) [2]; [6]): D (D represents a maximal response of < 40%)
13 | CC1CCN(S(=O)(=O)c2ccc(Cl)cc2)C1c1ccc2c(c1)CCO2 (mixture of isomers) [Compound 91] | < 5.68 | < 5.68 | F (F represents a maximal response of > 60%) | D (D represents a maximal response of < 40%) |  | 
14 | Fc1cnc(Cl)nc1N1CCCCC1c1cccc2ncnn12 (stereo not drawn) [compound 389] | > 6.15 |  | D (D represents a maximal response of < 40%) | D (D represents a maximal response of < 40%) | > 6.15 | 
15 | Fc1ccc(C2CC(F)CN2c2nc(Cl)ncc2F)cc1Cl (stereo not drawn) [compound 464] | < 5.68 | < 5.68 |  |  |  | β-arr Max. Resp. (mu opioid receptor (MOR) [1]; [3]): E (E represents a maximal response of 40-60%); cAMP Max. Resp. (mu opioid receptor (MOR) [2]; [6]): E (E represents a maximal response of 40-60%)
16 | Cc1cnc(N2CCCCC2c2cccc(F)n2)nc1Cl (stereo not drawn) [compound 268] | < 5.68 |  | D (D represents a maximal response of < 40%) | F (F represents a maximal response of > 60%) | < 5.68 | 
17 | Fc1cc(C2CC(C(F)(F)F)CN2c2nc(Cl)ncc2F)cc(C(F)(F)F)c1 (stereo not drawn) [compound 457] | < 5.68 | < 5.68 |  |  |  | β-arr Max. Resp. (mu opioid receptor (MOR) [1]; [3]): F (F represents a maximal response of > 60%); cAMP Max. Resp. (mu opioid receptor (MOR) [2]; [6]): E (E represents a maximal response of 40-60%)

Row | SMILES | pEC50 (mu opioid receptor (MOR) [1]; [4]) | pEC50 (mu opioid receptor (MOR) [2]; [5]) | β-arr Max. Resp. (mu opioid receptor (MOR) [1]; [7]) | cAMP Max. Resp. (mu opioid receptor (MOR) [2]; [8]) | pEC50 (mu opioid receptor (MOR) [2]; [9]) | also measured
18 | O=S(=O)(c1ccc(Cl)cc1)N1CCCCC1c1cccc(C(F)(F)F)c1 (stereo not drawn) [compound 18] | < 5.68 | 5.68 to 6.15 | F (F represents a maximal response of > 60%) | D (D represents a maximal response of < 40%) |  | β-arrestin Max Response (mu opioid receptor (MOR) [1]; β-arrestin recruitment, activity switching by MOR PAMs): F (F represents a maximal response of >60%); pEC50 (mu opioid receptor (MOR) [1]; β-arrestin recruitment, activity switching by MOR PAMs, read-out: β-arrestin EC50): < 5.68; cAMP Max Resp. (mu opioid receptor (MOR) [2]; adenylyl cyclase inhibition, activity switching by MOR PAMs): D (D represents a maximal response of < 40%); pEC50 (mu opioid receptor (MOR) [2]; adenylyl cyclase inhibition, activity switching by MOR PAMs, read-out: cAMP EC50): < 5.68
19 | COc1ccc(C2CCCCCN2S(=O)(=O)c2ccc(Cl)cc2)cc1Br (racemic) [compound 84] | < 5.68 | < 5.68 | E (E represents a maximal response of 40-60%) | D (D represents a maximal response of < 40%) |  | 
20 | Fc1cnc(Cl)nc1N1CC(C(F)(F)F)CC1c1cccc(C(F)(F)F)c1 (stereo not drawn) [compound 473] | < 5.68 | < 5.68 |  |  |  | β-arr Max. Resp. (mu opioid receptor (MOR) [1]; [3]): E (E represents a maximal response of 40-60%); cAMP Max. Resp. (mu opioid receptor (MOR) [2]; [6]): D (D represents a maximal response of < 40%)
21 | COc1ccc(C2C3CCC(C3)N2c2nc(Cl)ncc2F)cc1Br (stereo not drawn) [compound 138] | < 5.68 |  | D (D represents a maximal response of < 40%) | D (D represents a maximal response of < 40%) | < 5.68 | 
22 | FC(F)(F)c1cccc(C2CCCCN2Cc2cc(Cl)ccc2Cl)n1 (stereo not drawn) [compound 176] | 5.68 to 6.15 |  | F (F represents a maximal response of > 60%) | F (F represents a maximal response of > 60%) | 5.68 to 6.15 | 
23 | Fc1cnc(Cl)nc1N1CCCCC1c1cccc(C(F)F)c1 (stereo not drawn) [compound 298] | < 5.68 |  | F (F represents a maximal response of > 60%) | F (F represents a maximal response of > 60%) | > 6.15 | 
24 | Cc1ncc(F)c(N2CCCCC2c2cccc(F)n2)n1 (stereo not drawn) [compound 270] | < 5.68 |  | D (D represents a maximal response of < 40%) | D (D represents a maximal response of < 40%) | < 5.68 | 
25 | O=S(=O)(c1ccc(Cl)cc1)N1CCCCC1c1ccnc(F)c1 (racemic) [compound 59] | < 5.68 | < 5.68 | F (F represents a maximal response of > 60%) | F (F represents a maximal response of > 60%) |  | 
26 | COc1ccc(C2CCCCN2c2ncc(C)c(Cl)n2)cc1Br (stereo not drawn) [compound 236] | < 5.68 |  | F (F represents a maximal response of > 60%) | F (F represents a maximal response of > 60%) | < 5.68 | 
27 | COc1ccc(C2C(F)CCCN2c2nc(Cl)ncc2F)cc1Br (stereo not drawn) [compound 213] | < 5.68 |  | F (F represents a maximal response of > 60%) | D (D represents a maximal response of < 40%) |  | pEC50 (mu opioid receptor (MOR) [2]; read-out: cAMP EC50, adenylyl cyclase inhibition): < 5.68
28 | CC1CCN(S(=O)(=O)c2ccc(Cl)cc2)C1c1ccc(Cl)c(C(F)(F)F)c1 (mixture of isomers) [Compound 87] | < 5.68 | < 5.68 | F (F represents a maximal response of > 60%) | D (D represents a maximal response of < 40%) |  | 
29 | Fc1cnc(Cl)nc1N1CCCCC1c1cncc(C(F)(F)F)c1 (stereo not drawn) [compound 376] | > 6.15 |  | D (D represents a maximal response of < 40%) | D (D represents a maximal response of < 40%) | > 6.15 | 
30 | Fc1cnc(Cl)nc1N1CCCCC1c1ccc2cnnn2c1 (stereo not drawn) [compound 291] | < 5.68 |  | D (D represents a maximal response of < 40%) | F (F represents a maximal response of > 60%) | < 5.68 | 
31 | Fc1cnc(Cl)nc1N1CCCCC1c1ccn2nncc2c1 (stereo not drawn) [compound 374] | > 6.15 |  | D (D represents a maximal response of < 40%) | D (D represents a maximal response of < 40%) | > 6.15 | 
32 | Fc1ccc(C2C(F)CCCN2c2nc(Cl)ncc2F)cc1Br (stereo not drawn) [compound 211] | < 5.68 |  | F (F represents a maximal response of > 60%) | E (E represents a maximal response of 40-60%) | < 5.68 | 
33 | O=S(=O)(c1ccc(Cl)cc1)N1CCCCC1c1cccc(OC(F)(F)F)n1 (racemic) [compound 48] | < 5.68 | < 5.68 | F (F represents a maximal response of > 60%) | E (E represents a maximal response of 40-60%) |  | 
34 | Fc1ccc(C2CCCCN2c2nc(Cl)ncc2F)cc1Cl (single isomer, unassigned) [compound 346] | > 6.15 | > 6.15 | D (D represents a maximal response of < 40%) | D (D represents a maximal response of < 40%) |  | 

Reference: US11071731B2, “Allosteric modulators of the mu opioid receptor” (Chiromics, LLC, priority 2017, dated 2021)
